From paper PMC10046692 (Cancers, 2023)

Key:
[1] = tested on: 22Rv1 xenograft tumors; experiment: Subcutaneous xenograft study in nude mice; type: in vivo; conditions: 20 mg/kg b.w. orally, five days/week for four weeks
Method: (§1) All animals were maintained in germ-free environments, and the study was carried out per IACUC guidelines that the University of Louisville authorized. Athymic nude Balb/c mice (nu/nu) were obtained from The Jackson Laboratory at 6 weeks of age. C4-2B and 22Rv1 cells (1–1.5 × 10^6, approximately) were injected into separate flanks of the mice (n = 6) for subcutaneous tumor xenograft studies using a final volume of 100 μL of phosphate-buffered saline and Matrigel (1:1). Once the tumors reached ~50–100 mm^3, the mice were randomly divided into two groups; one group received a vehicle and the other groups received SB1-46 (20 mg/kg) orally for […] for 4 weeks. Mice were monitored twice weekly, and tumor volumes were measured once a week.
(§2) Finally, in a nude mice model, we evaluated the efficacy of orally administered SBI-46 in xenograft tumors from 22Rv1 and C4-2B cells. Athymic BALB/c nude mice were subcutaneously injected with 22Rv1 and C4-2B (1 × 10^6 cells), and when the tumors reached 50–100 mm^3, either the vehicle or SBI-46 (20 mg/kg b.w.) were given orally for five days/week for four weeks.

[2] = tested on: C4-2B xenograft tumors; experiment: Subcutaneous xenograft study in nude mice; type: in vivo; conditions: 20 mg/kg b.w. orally, five days/week for four weeks
Method: as §1, §2

[3] = tested on: RWPE-1 cells; type: cell-based
Method: (§3) The effect of the treatments on prostate cancer and normal prostate epithelial cells’ (LNCaP, 22Rv1, C4-2B, PC3, and RWPE1) viability was evaluated using the Alamar blue assay. Cells were seeded into 96-well plates, and after growing to 60–75% confluency, they were treated with vehicle control (DMSO, Sigma Aldrich, St. Louis, MO, USA) or various concentrations of SBI-46 in respective media for 24 h. At the termination of exposure, cells were incubated with 100 μL of 3% Alamar Blue solution in a complete growth medium at 37 °C for 2 h. Absorbance was measured, and data were analyzed following the manufacturer’s instructions (Life Technologies Corporation, Eugene, OR, USA).

[4] = biological target: T1, HDAC6 (Homo sapiens, UniProt Q9UBN7); experiment: HDAC inhibition, fluorescence-based assay (BPS Bioscience); type: biochemical; conditions: HDAC6 versus HDAC1
T1 construct: purchased BPS Bioscience (contract research organization that ran the assay)
T1 sequence (Q9UBN7 1-1215): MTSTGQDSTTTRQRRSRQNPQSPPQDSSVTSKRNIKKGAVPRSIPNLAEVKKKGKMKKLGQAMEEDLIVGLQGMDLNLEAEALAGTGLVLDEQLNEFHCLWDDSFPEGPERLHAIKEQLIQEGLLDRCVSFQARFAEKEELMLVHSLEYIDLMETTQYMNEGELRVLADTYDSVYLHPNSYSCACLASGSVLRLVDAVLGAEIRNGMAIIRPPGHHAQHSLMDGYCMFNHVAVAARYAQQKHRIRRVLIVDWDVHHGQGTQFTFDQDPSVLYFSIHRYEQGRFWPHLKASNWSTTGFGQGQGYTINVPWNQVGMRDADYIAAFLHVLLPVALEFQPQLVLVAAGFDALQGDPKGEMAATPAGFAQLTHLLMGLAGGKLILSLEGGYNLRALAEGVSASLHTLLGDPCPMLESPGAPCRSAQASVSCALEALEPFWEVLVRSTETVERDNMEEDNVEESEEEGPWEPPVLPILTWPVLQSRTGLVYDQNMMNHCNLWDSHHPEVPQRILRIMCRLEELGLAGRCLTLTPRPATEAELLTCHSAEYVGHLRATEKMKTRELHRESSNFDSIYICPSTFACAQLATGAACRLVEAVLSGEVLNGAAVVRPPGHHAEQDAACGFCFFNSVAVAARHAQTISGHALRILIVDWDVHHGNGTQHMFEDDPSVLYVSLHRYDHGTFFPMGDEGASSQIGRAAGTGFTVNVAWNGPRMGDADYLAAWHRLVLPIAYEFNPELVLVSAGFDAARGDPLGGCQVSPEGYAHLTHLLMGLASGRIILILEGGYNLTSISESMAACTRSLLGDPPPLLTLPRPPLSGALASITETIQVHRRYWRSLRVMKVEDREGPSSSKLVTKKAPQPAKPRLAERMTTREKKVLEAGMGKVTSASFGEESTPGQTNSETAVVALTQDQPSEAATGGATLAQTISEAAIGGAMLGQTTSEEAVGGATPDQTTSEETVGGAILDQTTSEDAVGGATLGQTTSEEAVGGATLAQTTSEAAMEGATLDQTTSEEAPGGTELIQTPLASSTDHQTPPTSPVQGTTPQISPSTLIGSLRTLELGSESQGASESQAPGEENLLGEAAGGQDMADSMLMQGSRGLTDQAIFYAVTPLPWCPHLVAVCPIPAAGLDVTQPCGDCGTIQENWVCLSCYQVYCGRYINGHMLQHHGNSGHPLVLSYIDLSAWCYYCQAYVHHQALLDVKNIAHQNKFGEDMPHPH
Method: In vitro HDAC inhibition was performed by the contract research organization (CRO) BPS Bioscience while an AR-binding assay was performed by Eurofins Panlabs. (St. Charles, MO, USA). These assays were performed through contract agreements with these CROs.

[5] = tested on: C4-2B cells; experiment: Soft agar colony formation assay; type: cell-based, human; conditions: p = 0.001
From the text: (§4) The CytoSelectTM 96-well In Vitro Tumor Sensitivity Assay Kit was used to perform the colony formation assay to detect anchorage-independent growth (Cell Biolabs, Inc., San Diego, CA, USA). LNCaP, C4-2B, and 22Rv1 cells (5 × 10^3 cells) that had been exposed to either the vehicle or SBI-46 were harvested and used for the assay following the manufacturer’s instructions. Colonies were manually counted after being stained with 0.005% crystal violet after ten days.

[6] = tested on: C4-2B cells; experiment: Annexin V-FITC / PI apoptosis assay; type: cell-based, human; conditions: p = 0.01
From the text: As previously described, apoptosis was detected using the annexin V-fluorescein isothiocyanate (FITC) versus propidium iodide (PI) assay (FITC Annexin V Apoptosis Detection Kit I, BD Pharminogen).

[7] = tested on: 22Rv1 cells; experiment: Cell viability, Alamar blue assay; type: cell-based; conditions: Homo sapiens, treated for 24 h, read-out: growth inhibition IC50, 22Rv1
Method: as §3

[8] = tested on: LNCaP cells; experiment: Cell viability, Alamar blue assay; type: cell-based; conditions: Homo sapiens, treated for 24 h, read-out: growth inhibition IC50, LNCaP
Method: as §3

[9] = tested on: C4-2B cells; experiment: Cell viability, Alamar blue assay; type: cell-based; conditions: Homo sapiens; treated for 24 h; read-out: growth inhibition IC50, C4-2B
Method: as §3

[10] = tested on: PC-3 cells; experiment: Cell viability, Alamar blue assay; type: cell-based; conditions: treated for 24 h
Method: as §3

[11] = tested on: 22Rv1 cells; experiment: Soft agar colony formation assay; type: cell-based, Human; conditions: p = 0.001
From the text: as §4

[12] = tested on: LNCaP cells; experiment: Soft agar colony formation assay; type: cell-based, Human; conditions: p = 0.001
From the text: as §4

[13] = tested on: AR-FL, AR-V7 and PSA expression in CRPC cells; experiment: Western blot of AR-FL, AR-V7 and PSA expression; type: cell-based, Human
[14] = Toxicity observation in xenograft study; type: in vivo; conditions: xenograft nude mice, 20 mg/kg orally
Method: as §1
It has been reported that the inhibition of AR-mediated survival signaling by small molecules results in either cell cycle arrest or the induction of apoptosis in CRPC cells. Our studies also observed the induction of pro-apoptotic machinery and concomitant downregulation of pro-survival signaling in SBI-46-treated CRPC cells.

[15] = tested on: VERO cells; experiment: cells; type: cell-based
Method: (§5) Human PCa cells (LNCaP and 22Rv1) and normal prostate epithelial (RWPE-1) and kidney (HEK-293 and VERO) cells were obtained from American […] (ATCC, Manassas, VA, USA). C4-2B was obtained from the ViroMed Laboratories (Minneapolis, MN). The cells were grown on a specified medium previously described. Dihydrotestosterone (DHT) (1 nM) (Cerilliant, TX, USA) studies were performed in phenol red-free RPMI1640 supplemented with 10% charcoal-stripped FBS (Gemini, West Sacramento, CA, USA).

[16] = tested on: HEK-293 cells; experiment: cells; type: cell-based
Method: as §5

[17] = tested on: acetylated H4 and tubulin in LNCaP cells; experiment: Western blot of H4 and tubulin acetylation (intracellular HDAC inhibition); type: cell-based, Human; conditions: 0.5 and 5 µM, 6 h
Method: To probe H4 and tubulin acetylation status, LNCaP cells were seeded into a 6-well plate at 1 × 10^6/well in RPMI for 24–48 h until the confluency reached 80%. […] Cells were treated for 6 h and scraped out of the well. The cells were washed with cold PBS three times and lysed with RIPA buffer (110 μL) (VWR, VWRVN653—100 mL) containing phosphatase inhibitor (Fisher Thermo, A32957, Waltham, MA, USA) and protease inhibitor (Fisher Thermo, A32955). The cell lysates were vortexed for 15 s, followed by sonication for 90 s. The lysates were then centrifuged at 14,000 rpm for 10 min, and the supernatants were collected. The total protein concentration was determined using a BCA protein assay kit (BioVision, K813-2500, Milpitas, CA, USA). Based on the results from the BCA assay, the lysates were diluted to make an equal protein concentration, and 20 μg of each lysate was loaded to each well of the TGX MIDI 4–20% gel (Biorad, cat. 5671093, Hercules, CA, USA) and ran at 150 V for 70 min. […]

CC1(C)C(=O)N(c2ccc(C#N)c(C(F)(F)F)c2)C(=O)N1Cc1ccc(-c2cn(CCCCCCCC(=O)NO)nn2)cc1F [SBI-46]
tumor volume and weight, 22Rv1 xenograft [1]: significant decrease
tumor volume and weight, C4-2B xenograft [2]: significant decrease
toxicity in normal prostate epithelial cell line RWPE-1 [3]: no significant toxicity
selectivity for HDAC6 [4]: ~ 4 fold
colony-forming ability, C4-2B [5]: reduced the colony-forming ability
induction of apoptosis (annexin V-FITC staining) [6]: 18%
IC50 [7]: 560 nM
IC50 [8]: 500 nM
IC50 [9]: 480 nM
effect on viability of AR-null PC-3 cells [10]: not effective
colony-forming ability, 22Rv1 [11]: reduced the colony-forming ability
colony-forming ability, LNCaP [12]: reduced the colony-forming ability
expressions of AR-FL and AR-V7 [13]: downregulated
toxicity in vivo, gross pathological examination of vital organs [14]: not toxic
toxicity in kidney cell line VERO [15]: no significant toxicity
IC50 ([15]; Chlorocebus sabaeus, Vero, Figure 1B): 40 ± 4.57 µM
toxicity in kidney cell line HEK-293 [16]: no significant toxicity
IC50 ([16]; Homo sapiens, HEK293, Figure 1B): 16.4 ± 2.22 µM
acetylation status of H4 and α-tubulin [17]: dose-dependent upregulation of acetylated H4 and tubulin
